Data set [1] deals with H1975 cells. Briefly: H1975 proliferation assay. Format: cell-based. To be noted: Homo sapiens, NCI-H1975; 72 hours incubation, cell survival through ATP quantification. How it is done:
Cells were allowed to attach overnight and compounds were added to the cells for a further incubation of 72 hours. […] of CTL was added afterwards to measure cell survival through ATP quantification.

Data set [2] addresses T1, Aurora-A (Homo sapiens, UniProt O14965).
T1 sequence (O14965 1-403): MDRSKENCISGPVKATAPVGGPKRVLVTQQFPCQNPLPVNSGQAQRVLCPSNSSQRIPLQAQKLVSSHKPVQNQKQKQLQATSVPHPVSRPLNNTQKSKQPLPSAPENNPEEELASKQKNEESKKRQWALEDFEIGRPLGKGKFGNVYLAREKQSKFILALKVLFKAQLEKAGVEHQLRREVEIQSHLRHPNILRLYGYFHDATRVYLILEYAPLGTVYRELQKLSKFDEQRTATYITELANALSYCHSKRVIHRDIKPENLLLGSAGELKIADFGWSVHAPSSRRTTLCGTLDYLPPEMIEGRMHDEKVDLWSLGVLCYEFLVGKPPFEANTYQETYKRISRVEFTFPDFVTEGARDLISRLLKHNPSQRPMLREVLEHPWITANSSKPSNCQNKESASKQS
Briefly: Aurora kinase activity assay (Caliper mobility shift), Aurora A. Format: biochemical. Conditions: for IC50: recombinant Aurora kinase, FAM labeled peptide substrate. The method, then:
(§1) The Caliper mobility shift assay was used to measure compound activity towards aurora kinase. 10 different concentrations of compounds were prepared by three-fold serial dilutions. Recombinant Aurora kinases in kinase buffer (20 mM HEPES, pH 7.5, 0.01% Triton X-100) were incubated with compounds for 10 minutes at room temperature. FAM labeled peptide substrates were subsequently added to initiate the reaction at 25° C. Conversion rates were measured by caliper after the reactions were terminated. […] Data were normalized to that of the vehicle control, and percentage of inhibition and IC50 were calculated.

Data set [3] concerns the target Aurora-B (Homo sapiens, UniProt Q96GD4). The data set is described as follows: Aurora kinase activity assay (Caliper mobility shift), Aurora B. Format: biochemical. To be noted: recombinant Aurora kinase, FAM labeled peptide substrate. The method, then: as §1
The test system of data set [4] is H69 xenograft. The data set is described as follows: In vivo anti-tumor growth in H69 mouse xenografts. Also noted: species or system nude mouse. To be noted: for RTV (relative tumor volume, Vt/V0) / T/C / TGI (%) / Body weight (g) D1 / Tumor volume (mm^3) D1 / Body weight (g) D21 / Tumor volume (mm^3) D21: H69 xenograft, bid*21, oral; for Body weight (g) D1 / Tumor volume (mm^3) D1: D1 first day of treatment; for Body weight (g) D21 / Tumor volume (mm^3) D21: D21 last day of treatment. How it is done: Cells were passaged and harvested by trypsinization. 1×10^7 H69 cells were implanted in the left armpit of nude mouse. […] Tumor volume and body weight were measured every other day. Mice were sacrificed on day 21 of treatment. Relative tumor volume (RTV) and tumor growth (T/C), and tumor growth inhibition (TGI) were calculated and analyzed statistically.

The subject of data set [5] is H1975 xenograft. Briefly: In vivo anti-tumor growth in H1975 mouse xenografts. Also noted: species or system nude mice. How it is done: Cells were passaged and harvested by trypsinization. 8×10^6 cells were implanted in the left armpit of nude mice. […] Tumor volume and body weight were monitored every other day. Mice were sacrificed on day 21 of treatment. Relative tumor volume (RTV) and tumor growth (T/C), and tumor growth inhibition (TGI) were calculated and analyzed.

[6] abbreviates: Dosage 60, qd*21, oral gavage, D1 first day of treatment.
Where [7] appears, read: Dosage 60, qd*21, oral gavage, D21 last day of treatment.

The results in this text go back to patent US12351582B2, “Aurora kinase inhibitors and uses thereof” (WIGEN BIOMEDICINE TECHNOLOGY (SHANGHAI) CO., LTD., priority 2019, dated 2025).

Sequence of Aurora-B (Q96GD4 whole entry): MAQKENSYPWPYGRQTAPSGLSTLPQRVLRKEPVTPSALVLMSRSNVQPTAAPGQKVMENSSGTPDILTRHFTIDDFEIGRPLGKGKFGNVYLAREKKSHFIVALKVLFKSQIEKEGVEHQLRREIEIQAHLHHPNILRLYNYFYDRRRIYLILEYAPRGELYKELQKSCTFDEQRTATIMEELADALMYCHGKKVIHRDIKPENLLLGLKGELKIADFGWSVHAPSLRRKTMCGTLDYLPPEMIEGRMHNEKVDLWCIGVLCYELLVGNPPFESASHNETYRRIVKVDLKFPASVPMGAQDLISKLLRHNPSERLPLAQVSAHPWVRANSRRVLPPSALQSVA

On to `CC1CC(Cc2nc(Nc3nccs3)ccc2F)(C(=O)O)CCN1Cc1cccc(Cl)c1F` (racemic) [Compound 1, 1-(3-chloro-2-fluorobenzyl)-4-((3-fluoro-6-(thiazol-2-ylamino)pyridin-2-yl)methyl)-2-methylpiperidine-4-carboxylic acid], for which the IC50 (usually the concentration needed to halve the response being measured) in data set [1] was found to be 0.022 µM; in data set [2], 0.64 nM; in data set [3] it was 20 nM.
For the compound `C[C@@H]1C[C@](Cc2nc(Nc3nccs3)ccc2F)(C(=O)O)CCN1Cc1cccc(Cl)c1F` [Compound 1-1, (2R,4R)-1-(3-chloro-2-fluorobenzyl)-4-((3-fluoro-6-(thiazol-2-ylamino)pyridin-2-yl)methyl)-2-methylpiperidine-4-carboxylic acid], half-maximal inhibition in data set [1] (IC50) was put at 0.012 µM. Besides, the “H69 tumor growth in words (comment on Table 4)” value in data set [4] (2.5, 5 and 10 mg/kg twice daily, compared to LY-3295668) was “blocks H69 tumor growth in a dose dependent manner with markedly improved efficacy compared to LY-3295668”. Moreover, in data set [4] (2.5 mg/kg), the “RTV (relative tumor volume, Vt/V0)” value is on record as 0.65; the T/C (in general, the ratio of treated to control) came out at 20%; the “TGI (%)” value was determined as 111.16%; the “Body weight (g) D1” value amounted to 15.99 g. In data set [4] (2.5 mg/kg), the “Tumor volume (mm^3) D1” value was 287.46 mm^3, the “Body weight (g) D21” value is on record as 16.73 g and the “Tumor volume (mm^3) D21” value came to 180.58 mm^3. For the same compound, in data set [4] (5 mg/kg), the “RTV (relative tumor volume, Vt/V0)” value amounted to 0.33; the T/C was 10%; the “TGI (%)” value turned out to be 120.31%; the “Body weight (g) D1” value was determined as 15.91 g. For the same compound, in data set [4] (5 mg/kg), the “Tumor volume (mm^3) D1” value is reported as 284.84 mm^3, the “Body weight (g) D21” value is on record as 16.01 g and the “Tumor volume (mm^3) D21” value worked out at 90.43 mm^3. For the same compound, in data set [4] (10 mg/kg), the “RTV (relative tumor volume, Vt/V0)” value was 0.37; the T/C is 11%; the “TGI (%)” value worked out at 120.34%; the “Body weight (g) D1” value worked out at 16.16 g. In data set [4] (10 mg/kg), the “Tumor volume (mm^3) D1” value is 287.92 mm^3, the “Body weight (g) D21” value is recorded as 16.19 g and the “Tumor volume (mm^3) D21” value was 93.16 mm^3. For the same compound, the IC50 in data set [2] was found to be 0.4 nM. For the same compound, the “potency in words (comment on Table 2)” value in data set [2] (towards Aurora-A, Aurora-B and H1975) is recorded as “more potent than its racemic mixture”. In addition, in data set [3], the IC50 worked out at 16 nM.
`CC1CC(Cc2nc(Nc3nccs3)ccc2F)(C(=O)O)CCN1Cc1ccnc(Cl)c1F` (stereo not shown) [Compound 3, 1-((2-chloro-3-fluoropyridin-4-yl)methyl)-4-((3-fluoro-6-(thiazol-2-ylamino)pyridin-2-yl)methyl)-2-methylpiperidine-4-carboxylic acid]: the IC50 turned out to be 0.195 µM in data set [1], 0.73 nM in data set [2] and 321 nM in data set [3].
The matching figures for `CC1CC(Cc2nc(Nc3nccs3)ccc2F)(C(=O)O)CCN1Cc1cccc2c1OC(F)(F)O2` (stereo not shown) [Compound 7, 1-((2,2-difluorobenzo[d][1,3]dioxol-4-yl)methyl)-4-((3-fluoro-6-(thiazol-2-ylamino)pyridin-2-yl)methyl)-2-methylpiperidine-4-carboxylic acid]: 0.099 µM, 1.1 nM and 822 nM.
With `CC1CC(Cc2nc(Nc3nccs3)ccc2F)(C(=O)O)CCN1C(C)c1cccc(Cl)c1F` (stereo not shown) [Compound 9, 1-(1-(3-chloro-2-fluorophenyl)ethyl)-4-((3-fluoro-6-(thiazol-2-ylamino)pyridin-2-yl)methyl)-2-methylpiperidine-4-carboxylic acid], the IC50 in data set [1] stood at 0.081 µM; in data set [2] it was 0.98 nM; in data set [3], 126 nM.
The compound `[2H]C([2H])(c1cccc(Cl)c1F)N1CCC(Cc2nc(Nc3nccs3)ccc2F)(C(=O)O)CC1C` (stereo not shown) [Compound 13, 1-((3-chloro-2-fluorophenyl)methyl-d2)-4-((3-fluoro-6-(thiazol-2-ylamino)pyridin-2-yl)methyl)-2-methylpiperidine-4-carboxylic acid] yielded an IC50 in data set [1] of 0.025 µM. In data set [5] (Dosage 60, qd*21, oral gavage), the “RTV (relative tumor volume, Vt/V0)” value is reported as 4.72 and the “TGI (%)” value was determined as 81.07%. Also, in data set [5] (setting [6]), the “Body weight (g) D1” value amounted to 17.82 g and the “Tumor volume (mm^3) D1” value came out at 82.50 mm^3. For the same compound, in data set [5] (setting [7]), the “Body weight (g) D21” value is reported as 19.00 g and the “Tumor volume (mm^3) D21” value is 373.74 mm^3. This compound yielded a T/C in data set [5] (Dosage 60, qd*21, oral gavage, TRTV/CRTV × 100) of 24.11%. Besides, the “activity in vivo in words (comment on Table 3)” value in data set [5] (compared with LY-3295668) is listed as “shows greater activity in vivo”. For the same compound, the IC50 in data set [2] was 0.74 nM. For the same compound, in data set [3], the IC50 was 15 nM.
With `CC1(C)CC(Cc2nc(Nc3nccs3)ccc2F)(C(=O)O)CCN1Cc1cccc(Cl)c1F` (stereo not shown) [Compound 20, 1-(3-chloro-2-fluorobenzyl)-4-((3-fluoro-6-(thiazol-2-ylamino)pyridin-2-yl)methyl)-2,2-dimethylpiperidine-4-carboxylic acid], the IC50 stood at 0.156 µM in data set [1], 1.42 nM in data set [2] and 435 nM in data set [3].
Regarding `Cc1cc(Nc2ccc(F)c(CC3(C(=O)O)CCN(C(=O)c4cccc(Cl)c4F)C(C)C3)n2)n[nH]1` (stereo not shown) [Compound 22, 1-(3-chloro-2-fluorobenzoyl)-4-((3-fluoro-6-((5-methyl-1H-pyrazol-3-yl)amino)pyridin-2-yl)methyl)-2-methylpiperidine-4-carboxylic acid], the IC50 in data set [1] worked out at 0.155 µM; in data set [2], 1.21 nM; in data set [3], 1140 nM.
